Experiments:
[1] = Photophysical properties (emission, lifetime, luminescence quantum yield); format: physicochemical; settings: for Φem / λem / τo: 298 K
Experimental: ^1H NMR spectra were recorded on a Bruker 400 MHz AVANCE III spectrometer at 298 K using deuterated solvents. Chemical shifts (8, ppm) were reported relative to tetramethylsilane (TMS). Positive-ion electrospray ionization (ESI) mass spectra were recorded on a Perkin Elmer Sciex API 365 mass spectrometer at 298 K. IR spectra of the samples in KBr pellets were recorded in the range of 4000-400 cm^−1 using a Perkin Elmer FTIR-1600 spectrophotometer. Electronic absorption and steady-state emission spectra were recorded on a Hewlett-Packard 8453 diode array spectrophotometer and a SPEX Fluorolog 3-TCSPC spectrofluorometer, respectively. Emission lifetimes were measured in the Fast MCS or TCSPC mode with a NanoLED N-375 as the excitation source. Unless specified otherwise, all solutions for photophysical studies were degassed with no fewer than four successive freeze-pump-thaw cycles and stored in a 10 cm^3 round bottomed flask equipped with a side-arm 1-cm fluorescence cuvette and sealed from the atmosphere by a Rotaflo HP6/6 quick-release Teflon stopper. Luminescence quantum yields were measured by the optically dilute method (Demas, J N., Crosby, G A J., Phys. Chem., 1971, 75:991-1024) using a degassed CH3CN solution of [Re(phen)(CO)3(pyridine)](CF3SO3) (phen=1,10-phenanthroline) (φem=0.18, λex=355 nm) as the standard solution.
The photophysical data are summarized in Table 2, and the emission spectra of metal complex of Formula (IV) in CH3CN and aqueous buffer solutions at 298 K are shown in FIG. 2.

[2] = Reaction kinetics with H2O2 under pseudo first-order conditions, UV-Visible spectroscopy; format: physicochemical; settings: 298 K
Experimental: Kinetics experiments for the reactions of metal complex of Formula (IV) with H2O2 were performed under pseudo first-order conditions. Metal complex of Formula (IV) (10 μM) was reacted with H2O2 in a 1:100, 1:200, 1:400, or 1:800 molar ratio in potassium phosphate buffer (50 mM, pH 7.4)/DMSO (99:1, v/v) at 298 K. The reactions were monitored by UV-Visible spectroscopy at ca. 343 nm. The kobs values were determined by fitting the experimental data to the first-order rate equation, [A]=[A]oe^−kt. The k2 value was determined by plotting kobs versus [H2O2] and the rate constant corresponds to the determined slope.
The change in absorption spectrum of metal complex of Formula (IV) (10 μM) in aerated potassium phosphate buffer (50 mM, pH 7.4)/DMSO (99:1, v/v) in the presence of H2O2(1 mM) at 298 K is shown in FIG. 3. […] The pseudo first-order rate constant (kobs) of reaction of metal complex of Formula (IV) (10 μM) was determined to be (0.6375±0.0092)×10^−3 s^−1. The plot of kobs of reactions of metal complex of Formula (IV) with H2O2 against various concentrations of H2O2 is shown in FIG. 4.

[3] = H2O2-sensing emission titration; format: physicochemical; settings: complex 10 μM, buffer pH 7.4/DMSO (99:1)
Experimental: (§1) In H2O2-sensing studies, various amounts of H2O2 (25 mM; 0-20 μL) were added to a series of solutions containing metal complex of Formula (IV) (10 μM) in potassium phosphate buffer (50 mM, pH 7.4)/DMSO (99:1, v/v). The reaction mixtures were incubated in the dark at room temperature for 1.5 h, and their emission spectra were then measured. The limit of detection was determined according to the equation, […]. In the selectivity studies, different reactive oxygen species (100 μM) were added into a series of solutions containing metal complex of Formula (IV) (10 μM) in potassium phosphate buffer (50 mM, pH 7.4)/DMSO (99:1, v/v). The reaction mixtures were incubated in the dark at room temperature for 1.5 h, and their emission spectra were then measured. H2O2 was diluted from a stabilized 30% aqueous solution. TBHP was diluted from a 70% aqueous solution. NOC-7, KO2, and NaOCl were used as the sources of NO, O2^−, and ClO^−, respectively. Singlet oxygen (^1O2) was generated by the reaction of NaOCl and H2O2(Held, A M. Et al., Am. Chem. Soc., 1978, 100:5732-5740; Aubry, J M., J. Am. Chem. Soc., 1985, 107:5844-5849). Hydroxyl radicals (OH.) were generated by the reaction of ammonium iron(II) sulfate hexahydrate and H2O2.
The reactivity of metal complex of Formula (IV) with H2O2 was examined by emission titrations and the emission titration traces and corresponding titration curve are shown in FIGS. 5 and 6, respectively. […] The detection limit was calculated to be 1.84 μM.

[4] = Selectivity study: emission response toward reactive oxygen species; format: physicochemical; settings: complex 10 μM, buffer pH 7.4/DMSO (99:1), 1.5 h
Experimental: as §1, with “H2O2. […]” for “H2O2.”

[5] = test system: HeLa cells; assay: Cytotoxicity by MTT assay; format: cell-based
Experimental: To confirm the suitability of the possibility of metal complex of Formula (IV) as phosphorescent sensor for intracellular H2O2, the cytotoxicity of metal complex of Formula (IV) was examined by the MTT assay.
HeLa cells were cultured in growth medium in a humidified chamber at 37° C. under a 5% CO2 atmosphere. The cells were subcultured every 2-3 days. HeLa cells were seeded in a 96-well flat-bottomed microplate (10,000 cells/well) in a growth medium (100 μL) and incubated at 37° C. under a 5% CO2 atmosphere for 24 h. […] The wells containing untreated cells were used as blank controls. […] Then MTT in PBS (5 mg/mL; 10 μL) was added to each well. The microplate was then incubated for another 4 h. The medium was removed and DMSO (200 μL) was added to each well. The microplate was further incubated for 10 min. The absorbance of the solutions at 570 nm was measured with a SPECTRAmax 340 microplate reader (Molecular Devices Corp., Sunnyvale, Calif.). Percentage cell survival was calculated relative to the absorbance of the control for each treatment. The viability of untreated cells was assumed to be 100%.

[6] = test system: HeLa cells; assay: Live-cell imaging by laser-scanning confocal microscopy (uptake, mitochondrial co-staining, intracellular H2O2); format: cell-based
Experimental: For co-staining experiments, HeLa cells in growth medium were seeded on a sterilized coverslip in a 35-mm tissue culture dish and grown at 37° C. under a 5% CO2 atmosphere for 48 h. The medium was removed and the cells were incubated with metal complex of Formula (IV) (10 μM) in growth medium/DMSO (99:1, v/v) for 40 min and then with MitoTracker Deep Red FM (100 nM) in a FBS-free medium for another 20 min. Prior to imaging, the cells were washed with PBS (1 mL×3), mounted onto a sterilized glass slide, and then imaged using a Leica TCS SPE confocal microscope with an oil immersion 63× objective. The excitation wavelength for metal complex of Formula (IV) was 405 nm and that of MitoTracker Deep Red FM was 633 nm. The Pearson's coefficient was determined by the program Image J (version 1.45k). For imaging of intracellular H2O2, HeLa cells in growth medium were seeded on a sterilized coverslip in a 35-mm tissue culture dish and grown at 37° C. under a 5% CO2 atmosphere for 48 h. The medium was removed and the cells were incubated with metal complex of Formula (IV) (10 μM) in growth medium/DMSO (99:1, v/v) for 1 h. The stained cells were washed with PBS (1 mL×3) and further treated with H2O2 (1 mM) in growth medium for another 2 h. Prior to imaging, the cells were washed with PBS (1 mL×3), mounted onto a sterilized glass slide, and then imaged using a Leica TCS SPE confocal microscope with an oil immersion 63× objective.
The use of metal complex of Formula (IV) for intracellular H2O2-sensing was evaluated by laser-scanning confocal microscopy. […] (FIG. 10D to 10F). This implies that the internalization of metal complex of Formula (IV) involved an energy-requiring pathway such as endocytosis.
With reference to FIG. 11A to 11C, the metal complex of Formula (IV) was localized in the mitochondria (Pearson's coefficient: 0.99).

[7] = degassed CH3CN solution, λex=355 nm; cited from earlier work
[8] = Potassium phosphate buffer (50 mM, pH 7.4)/MeOH (7:3, v/v)

Molecule	Φem ([1]; CH3CN)	λem ([1]; CH3CN) [nm]	τo ([1]; CH3CN) [μs]	Φem [1, 8]	λem [1, 8] [nm]	τo [1, 8] [μs]	luminescence quantum yield ([1]; upon irradiation, very weak MLCT emission)	pseudo first-order rate constant (kobs) ([2]; complex 10 μM, H2O2 (1 mM), aerated potassium phosphate buffer (50 mM, pH 7.4)/DMSO (99:1, v/v))	second-order rate constant ([2]; slope of kobs versus [H2O2], potassium phosphate buffer (50 mM, pH 7.4)/DMSO (99:1, v/v)) [M⁻¹ s⁻¹]	emission enhancement (I/I0) ([3]; [H2O2]=250 μM, 1.5 h)	H2O2 concentration range of good linearity of emission intensity enhancement [3] [µM]	detection limit for H2O2 [3] [µM]	emission response toward H2O2 ([4]; H2O2 100 μM)	emission response toward TBHP, 1O2, OH., NO, O2−, ClO− ([4]; ROS 100 μM)	cytotoxic effect under imaging experiment conditions ([5]; 10 μM, 1 h)	IC50 ([5]; HeLa cells, 48 h, MTT) [µM]	emission intensity of the cells at lowered incubation temperature ([6]; HeLa cells, 10 μM, 1 h, 4° C.)	intracellular emission ([6]; HeLa cells, 10 μM, 1 h, 37° C.)	intracellular emission intensity after incubation with H2O2 ([6]; complex-stained HeLa cells, H2O2 1 mM, 2 h)	φem of standard solution [7]
[Re(Ph2-phen)(CO)3(py-3-C(═O)C(═O)C6H3(NH2)(NO2)](CF3SO3) [Metal complex of Formula (IV)]	0.007	554	4.83	0.005	557	3.14	< 0.007	(0.6375±0.0092)×10^−3 s^−1	0.7301 ± 0.0134	20.6	0 to 50	1.84	significant emission enhancement	did not induce any significant changes in the emission intensity	would not cause significant cytotoxic effect	3.34 ± 0.05	significantly reduced	weak intracellular emission in the perinuclear region	significantly enhanced	
O=S(=O)([O-])C(F)(F)F.[C-]#[O+].[C-]#[O+].[C-]#[O+].[Re+].c1ccncc1.c1cnc2c(c1)ccc1cccnc12 [[Re(phen)(CO)3(pyridine)](CF3SO3)]																				0.18

Source: patent US9890327B2, “Phosphorescent transition metal complex, its preparation and use” (City University of Hong Kong, priority 2015, dated 2018)
